Test results from publication PMC8049054, “Systematic Assessment of Fragment Identification for Multitarget Drug Design” (Chemmedchem, 2021).
Marks after values point to notes of the source that are not given here.

Legend:
Conditions in all cases: 500 μM fragment, mean of duplicates
[1] = test system: T1, farnesoid X receptor (FXR); assay: Differential scanning fluorimetry (DSF) screen on FXR; type: binding, human
T1 construct: made in house; host or cells: E. coli BL21 (DE3)
Text: For the primary screen of this fragment library, we employed differential scanning fluorimetry (DSF, also known as thermal shift). DSF is generally applicable to a large panel of protein targets and provides a robust, low‐cost screening technology for fragment‐based approaches. ^[20] […] We performed an initial fragment screen on all five targets by DSF.
(§1) Figure S3: SDS page of the purified proteins (proteins RXRα and FXR after TEV cleavage) using a 14% polyacrylamide gel, which was stained with coomassi. Precision Plus Protein™ Unstained Protein Standard s (Bio-Rad Laboratories, Inc. ) was used […]
(§2) All experiments were performed as duplicates using MicroAmp fast 96 -well plates. Each plate contained 80 different compound wells and 16 DMSO control wells. First 0.8 µl of a 25 mM Preswick Library Fragment dilution in DMSO or pure DMSO were placed in each of the well (final concentration 500 µM). Then 39.2 µl of the master mi x (containing protein, Triton x -100, SYPRO® Orange Protein Gel Stain and buffer that corresponds to the tested protein) were added.
Table S4: Final concentrations in DSF experiments:
Protein Final concentrations under screening conditions
(§3) The measurements were performed using a iCycler iQ™ Single -Color Real Time PCR device with a heat rate of 1 °C per min, an excitation wavelength of 490 nm and an emission wavelength of 570 nm. The first derivation calculated by MyiQ Op tical Software 1.0 was analyzed using Microsoft Office Excel 2013 by comparing the maxima. A shift of 1 °C (in case of 5 -LOX 0.9°C) or more compared to the DMSO control were assumed as potentially binding of the fragment.
(§4) (1 picture or pasted object on this page, not shown here)

RXRα = test system: T2, RXRα; assay: Differential scanning fluorimetry (DSF) screen on RXRα; type: binding
T2 construct: MBP (N, cleaved yes); poly-N-tag, His8-tag, TEV site (N, cleaved yes); made in house; host or cells: E. coli T7-express with pGro7 (GroEL/ES)
Text: (§5) For the primary screen of this fragment library, we employed differential scanning fluorimetry (DSF, also known as thermal shift). DSF is generally applicable to a large panel of protein targets and provides a robust, low‐cost screening technology for fragment‐based approaches. ^[20] All five proteins of our interest are soluble and were recombinantly expressed in Escherichia coli. We performed an initial fragment screen on all five targets by DSF. The use of a uniform screening method for all targets ensured consistent data and provided the opportunity to identify false positive hits which interfered with the screening technology. The conditions of the DSF assay were optimized for the desired screening and validated with reference compounds (Table S1 in the Supporting Information). Compounds causing a positive thermal shift ΔT m≥1.0 °C were considered as active.
(§6) DSF measurement of the PDFL (single concentration of 500 μM, duplicates, 96‐well format) on the five proteins retrieved 19 fragment hits on sEH, 28 on LTA4H, 12 on 5‐LOX, 16 on RXRα, and 14 on FXR, respectively. Melting point distributions of the screening library for all five targets are depicted in Figure 2. Amongst the hits, three compounds (Table S2) gave a positive signal on all five proteins likely qualifying them as pan assay interference compounds (PAINS). ^[21] Fragments binding to multiple targets (Scheme 1) were identified for seven out of ten target combinations (Figure 2, Table 1). Among them, fragments 4, 6, 7, and 9 match previously identified privileged scaffolds for fatty acid mimetics. ^[14] […] Active ligands containing N‐phenylbenzamide 6 and the N‐phenylbenzylamine 7 have been described for four of the protein targets. Furthermore, indole, which has been characterized as a privileged heterocycle for fatty acid mimetics, ^[14] is present in fragments 5 and 10. Dual 5‐LOX/RXR ligand 1 was present in 5‐LOX inhibitors, while dual FXR/LTA4H modulator 3 is found among known FXR ligands. Fragments 2 (sEH/5‐LOX) and 8 (LTA4H/RXR) are novel scaffolds not appearing in known ligands of any of the five targets.
as §1, §2
(§7) Table S4: Final concentrations in DSF experiments: […]
as §3, §4

[2] = target: T3, leukotriene A4 hydrolase (LTA4H) (Homo sapiens, UniProt P09960); assay: Differential scanning fluorimetry (DSF) screen on LTA4H; type: binding
T3 construct: made in house; host or cells: E. coli BL21 (DE3)
T3 sequence (P09960 1-611): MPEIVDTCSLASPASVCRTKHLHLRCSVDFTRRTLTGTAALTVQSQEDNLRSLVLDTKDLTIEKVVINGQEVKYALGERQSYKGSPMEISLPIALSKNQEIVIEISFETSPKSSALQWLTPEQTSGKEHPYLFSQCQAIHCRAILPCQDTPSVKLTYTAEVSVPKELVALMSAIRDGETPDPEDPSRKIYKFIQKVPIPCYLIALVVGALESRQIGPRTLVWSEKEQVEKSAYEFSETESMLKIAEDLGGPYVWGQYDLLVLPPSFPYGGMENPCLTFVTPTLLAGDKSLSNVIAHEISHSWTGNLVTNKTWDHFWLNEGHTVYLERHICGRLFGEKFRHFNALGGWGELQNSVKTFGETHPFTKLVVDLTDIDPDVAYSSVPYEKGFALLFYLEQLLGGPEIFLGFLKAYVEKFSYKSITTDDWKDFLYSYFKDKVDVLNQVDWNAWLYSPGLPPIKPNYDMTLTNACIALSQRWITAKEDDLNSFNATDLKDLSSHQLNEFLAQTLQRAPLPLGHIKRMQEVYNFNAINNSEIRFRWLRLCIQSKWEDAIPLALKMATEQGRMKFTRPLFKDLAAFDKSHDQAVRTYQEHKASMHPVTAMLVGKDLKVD
Text: as §5, §6, §1, §2, §7, §3, §4

DSF/ΔT m FXR [1]	DSF/ΔT m LTA4H [2] [°C]	Structure (SMILES)	DSF/ΔT m RXRα (RXRα) [°C]
0.3±0.0 °C	−0.1±2.1	Cc1cc(=O)n(-c2ccc(C)c(C)c2)[nH]1 [Compound 2]	−9.5±24.0
1.4±0.7 °C	2.5±0.0	CCCCOc1cc(C(=O)OC)ccc1N [Compound 3]	−2.9±0.0
	1.5±0.0	Oc1ccc(Cc2ccccc2)cc1 [Compound 4]	−2.4±0.7
1.2±0.0 °C	1.7±0.0	Oc1ccc2cc[nH]c2c1 [Compound 5]	0.8±0.7
	0.5±0.0	CCN(Cc1ccccc1)c1ccccc1 [Compound 7]	−0.4±0.7
	1.5±0.0	Clc1ccc2c(c1)Nc1ccccc1CC2 [Compound 8]	
21.7±3.5 ^[a] °C	0.7±0.0	Oc1ccc(-c2ccc(F)cc2F)cc1 [Compound 9]	2.3±0.0
−11.6±2.1 °C	2.4±0.0	Fc1ccc(-c2c[nH]c3ccccc23)cc1 [Compound 10]	1.9±0.0

Structure (SMILES)	DSF/ΔT m FXR [1]	DSF/ΔT m LTA4H [2] [°C]	DSF/ΔT m RXRα (RXRα) [°C]
c1ccc(N2CCNCC2)nc1 [Compound 1]	−0.1±0.0 °C	−0.5±0.0	1.1±0.0
Cc1ccccc1C(=O)Nc1ccccc1 [Compound 6]	−1.2±0.7 °C	1.4±1.4	−1.0±0.7
